Measured values: EP4715056A1, “BIO-BASED TRANS-ACONITATE, PREPARATION METHOD THEREFOR AND USE THEREOF” (Qingdao Institute of Bioenergy and Bioprocess Technology, …, priority 2023, dated 2024)

Assays:
Assay type in all cases: physicochemical
[1] = Tensile properties (GB/T 1040-2006): tensile modulus at 100%, elongation at break, elastic modulus; settings: PVC plastic with 35 parts plasticizer; 50 mm/min, 25°C
Description: (§1) The aconitates and tributyl citrate prepared in the above examples and comparative examples were added as plasticizers to PVC resin to obtain PVC plastics. The PVC plastics include 100 parts of PVC resin, 35 parts of plasticizer, 2 parts of oxidized polyethylene wax, and 5 parts of octyltin maleate. The above raw materials were mixed and prepared using the same mixing process to obtain finished PVC products. The performance tests were performed on different plasticizers and the obtained PVC finished products in the above examples and comparative examples. […] Three points were selected for each group of samples, each point was tested once, and a median value was taken. • 2. […] Compatibility: tests were performed using a water value method. Since water molecules are polar, the compatibility between the plasticizer and water can characterize the compatibility between the plasticizer and polar materials (PVC, PLA, and nitrile rubber). When a certain plasticizer has good compatibility with water, it has good compatibility with PVC, and vice versa. In the experiment, 2.5 g of plasticizer and 25 g of acetone were added to a beaker, titrated with a burette filled with deionized water, and agitated while titrating until turbidity appears, and the volume of deionized water consumed was recorded. • 4. Glass transition temperature (Tg): the glass transition temperature was tested using a dynamic mechanical analyzer. Test conditions: nitrogen was taken as the carrier gas, at a test temperature range of -40 to 80°C, a heating rate of 3°C/min, and a frequency of 1 Hz.

[2] = Hardness (Shore hardness tester, GB/T 531-2008); settings: PVC plastic: 100 parts PVC resin, 35 parts plasticizer, 2 parts oxidized polyethylene wax, 5 parts octyltin maleate
Description: as §1, with “The PVC plastics include 100 parts of PVC resin, 35 parts of plasticizer, 2 parts of oxidized polyethylene wax, and 5 parts of octyltin maleate.” left out

[3] = Water content (Karl Fischer moisture meter); settings: aconitate/citrate products, Table 4
Source text: 6. Water content: a Karl Fischer moisture meter is used to test the water content (retained to two decimal places).

[4] = Residual amounts of fat-soluble and water-soluble pigments (HPLC); settings: aconitate/citrate products, Table 4
Description: 7. Residual amounts of fat-soluble pigments and water-soluble pigments: • a high-performance liquid chromatograph (HPLC) was used, and the instrument sensitivity and stability of the detector should comply with the provisions of GB/T 16631-2008. Chromatographic column: C18 column; injector: 10 µL micro-syringe; solvent: acetonitrile (HPLC grade); acquisition time: 15 min; mobile phase: 80% acetonitrile (HPLC grade) and 20% deionized water; injection volume: 1 µL; wavelength: 230 nm.
Test: the instrument was adjusted according to the above provisions. After the baseline was stable, 0.2 µL of the sample was injected using a micro-syringe, and the integrator or chromatographic workstation was started at the same time. A pigment concentration-integral area standard curve was established by testing the integral areas of pigments with different concentrations. When the pigment content was measured, the corresponding pigment integral area was automatically given by the instrument, and the pigment concentration was obtained by comparing with the standard curve. The ratio of the pigment concentration to the sample concentration is the pigment content.

[5] = Compatibility (water value method); settings: 2.5 g plasticizer and 25 g acetone titrated with deionized water until turbidity; Table 5
Description: as §1

[6] = Acid value (KOH titration); settings: aconitate/citrate products, Table 4
Description: The aconitates and citrates prepared in the above examples and comparative examples were tested for acid value, purity, chromaticity, yield, triester conversion rate, and water content. […] The mixture was neutralized with 0.02 mol·L^-1 potassium hydroxide aqueous solution until a faint pink color appears, and the consumed volume Vo was recorded. 1 g of the sample (accurate to 0.01 g) was weighed using a ground-neck conical flask, then one portion of the above neutralized solution was added. After the sample was completely dissolved, the sample was titrated with 0.02 mol·L^-1 potassium hydroxide-ethanol standard titration solution (the titration should be completed within 30 seconds) until a faint pink color appeared and persisted for 5 seconds without fading, which was considered as an end point. The consumed volume V was recorded. […] Chromatographic column: C18 column; injector: 10 µL micro-syringe; solvent: acetonitrile (HPLC grade); acquisition time: 15 min; mobile phase: 80% acetonitrile (HPLC grade) and 20% deionized water; injection volume: 1 µL; wavelength: 230 nm.

[7] = Glass transition temperature (dynamic mechanical analyzer); settings: PVC plastic with 35 parts plasticizer; -40 to 80°C, 3°C/min, 1 Hz
Description: as §1

[8] = Chromaticity (platinum-cobalt colorimetry); settings: aconitate/citrate products, Table 4; colour comparison at 25°C
Description: 3. Chromaticity: preparation of 500# platinum-cobalt colorimetric standard stock solution: 1.2450 g of potassium chloroplatinate and 1.0000 g of cobalt chloride were weighed, with an accuracy of 0.0002 g, the mixture was dissolved in 100 mL of hydrochloric acid, and then diluted to 1000 mL with distilled water. This solution is just the 500# colorimetric standard comparison solution.
Preparation of colorimetric standards below 500#: different amounts of the 500# stock solution was prepared, and diluted with distilled water to the volume of a colorimetric tube to prepare colorimetric standard solutions of any number. The calculation formula is as follows: V = (N×V1)/500 [formula]
In the formula, V is the volume of the 500# standard stock solution taken to prepare the N# colorimetric standard solution, in mL; V1 is the volume of the colorimetric tube used, in mL; and N is the number of the colorimetric standard solution to be prepared.
Color comparison determination was performed at 25°C.

SMILES | Elastic modulus [1] [MPa] | Elongation at break [1] [%] | Tensile modulus at 100% [1] [MPa] | Hardness/Shore D [2] [Shore D] | Water content [3] [%] | Residual amounts of fat-soluble pigments [4] [ppm] | Residual amounts of water-soluble pigments [4] [ppm] | Compatibility [5] [mL] | Acid value [6] [KOH/g] | Tg [7] [°C] | Chromaticity [8] [Pt-Co]
CCCCOC(=O)C=C(CC(=O)OCCCC)C(=O)OCCCC [Example 29, tributyl aconitate] | 92.6 | 251.6 | 15.4 | 42 | 0.03 | 435 | 1302 | 14.9 | 0.05 | 28.8 | 60
CCCCOC(=O)C=C(CC(=O)OCCCC)C(=O)OCCCC [Example 32, tributyl aconitate] | 133.4 | 241.2 | 15.6 | 43 | 0.02 | 382 | 1325 | 13.1 | 0.05 | 28.7 | 60
CCCCOC(=O)C=C(CC(=O)OCCCC)C(=O)OCCCC [Example 33, tributyl aconitate] | 204.5 | 223.7 | 18.2 | 47 | 0.04 | 395 | 4064 | 11.3 | 0.05 | 30.8 | 100
CCCCOC(=O)C=C(CC(=O)OCCCC)C(=O)OCCCC [Example 35, tributyl aconitate] | 348.6 | 173.4 | 19.8 | 55 | 0.03 | 3475 | 5348 | 8.1 | 0.05 | 38.4 | 300
CCCCOC(=O)C=C(CC(=O)OCCCC)C(=O)OCCCC [Comparative Example 3, tributyl aconitate, reference compound] | 186.7 | 233.6 | 17.4 | 45 | 0.04 | 2864 | 2698 | 12.5 | 0.05 | 28.7 | 150
CCCCOC(=O)C=C(CC(=O)OCCCC)C(=O)OCCCC [Example 31, tributyl aconitate] | 157.6 | 231.5 | 17.2 | 45 | 0.03 | 427 | 1715 | 12.5 | 0.05 | 29.6 | 60
CCCCOC(=O)C=C(CC(=O)OCCCC)C(=O)OCCCC [Comparative Example 1, tributyl aconitate, reference compound] | 192.2 | 223.2 | 17.9 | 46 | 0.03 | 16424 | 13861 | 10.8 | 0.05 | 30.7 | >500
CCCCOC(=O)C=C(CC(=O)OCCCC)C(=O)OCCCC [Example 19, tributyl aconitate] | 74.6 | 260.1 | 14.6 | 41 | 0.03 | 431 | 405 | 16.7 | 0.05 | 27.6 | 30
CCCCOC(=O)C=C(CC(=O)OCCCC)C(=O)OCCCC [Example 36, tributyl aconitate] | 137.4 | 243.4 | 15.9 | 43 | 0.04 | 836 | 1368 | 13.4 | 0.05 | 29.7 | 60
CCCCOC(=O)C=C(CC(=O)OCCCC)C(=O)OCCCC [Example 24, tributyl aconitate] | 131.0 | 242.7 | 15.7 | 43 | 0.02 | 1386 | 420 | 13.1 | 0.05 | 28.6 | 60
CCCCOC(=O)C=C(CC(=O)OCCCC)C(=O)OCCCC [Example 25, tributyl aconitate] | 156.4 | 226.5 | 17.2 | 45 | 0.03 | 865 | 454 | 12.7 | 0.05 | 28.2 | 50
